# Laboratory results as given in ChEMBL document CHEMBL1201862, “PubChem BioAssay data set” (2004).
#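 Tested at 5 concentrations; 48 h exposure; 96-well plates; endpoints linearly interpolated, else capped at highest concentration. Here, GI50 denotes the concentration required for 50% inhibition of growth.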 Activity calls are given as the source filed them. Rule as the data show it: active = GI50 up to about 1.1 µM and inactive = higher.
# Experiments:
# Test in all cases: growth of human tumour cells (NCI), 48 h
# 786-0 = system: 786-0
# A549 = system: A549
# COLO 205 = system: COLO 205
# HCT-116 = system: HCT-116
# HCT-15 = system: HCT-15
# HOP-62 = system: HOP-62
# HOP-92 = system: HOP-92
# IGROV-1 = system: IGROV-1
# K562 = system: K562
# KM12 = system: KM12
# M14 = system: M14
# OVCAR-3 = system: OVCAR-3
# OVCAR-5 = system: OVCAR-5
# SF-295 = system: SF-295
# SK-MEL-2 = system: SK-MEL-2
# SK-OV-3 = system: SK-OV-3
# SNB-19 = system: SNB-19
# U-251 = system: U-251
# UACC-257 = system: UACC-257
# UACC-62 = system: UACC-62
SMILES,GI50 (786-0),GI50 (A549),GI50 (COLO 205),GI50 (HCT-116),GI50 (HCT-15),GI50 (HOP-62),GI50 (HOP-92),GI50 (IGROV-1),GI50 (K562),GI50 (KM12),GI50 (M14),GI50 (OVCAR-3),GI50 (OVCAR-5),GI50 (SF-295),GI50 (SK-MEL-2),GI50 (SK-OV-3),GI50 (SNB-19),GI50 (U-251),GI50 (UACC-257),GI50 (UACC-62)
CC(C)(C)c1cc(C(=O)/C=C/c2c(Cl)cccc2Cl)cc(C(C)(C)C)c1O,13.1 µM (inactive),18.8 µM (inactive),15.9 µM (inactive),8.83 µM (inactive),12.4 µM,20 µM (inactive),25.8 µM (inactive),23.4 µM (inactive),18.9 µM (inactive),13.1 µM (inactive),20.3 µM (inactive),3.79 µM (inactive),19.2 µM (inactive),11.5 µM (inactive),11.9 µM (inactive),53.5 µM (inactive),11.9 µM (inactive),11.9 µM (inactive),5.6 µM (inactive),12.8 µM (inactive)
O=C(CCc1ccc(O)cc1)NCCc1cccc(OCc2ccccc2)c1,40.4 µM (inactive),40.1 µM (inactive),49.4 µM (inactive),21.8 µM (inactive),29 µM,29.6 µM (inactive),23.6 µM (inactive),28.5 µM (inactive),17.9 µM (inactive),25.4 µM (inactive),17.8 µM (inactive),17.2 µM (inactive),43.5 µM (inactive),30.3 µM (inactive),17.3 µM (inactive),27.7 µM (inactive),69 µM (inactive),22.7 µM (inactive),17.6 µM (inactive),14.1 µM (inactive)
NC(=O)c1nc[nH]c1/N=N/SCC(N)C(=O)O (stereo not given),19.4 µM (inactive),> 100 µM (inactive),21.2 µM (inactive),6.9 µM (inactive),43.2 µM,28.7 µM (inactive),15.7 µM (inactive),12.8 µM (inactive),2.01 µM (inactive),14.2 µM (inactive),2.81 µM (inactive),19.1 µM (inactive),> 94 µM (inactive),6.32 µM (inactive),3.33 µM (inactive),2.88 µM (inactive),> 100 µM (inactive),> 80.7 µM (inactive),54.8 µM (inactive),6.31 µM (inactive)
N#CC(C#N)=C1/C(=C/C=C/C=C/C=C/c2ccc(N3CCCCC3)s2)S(=O)(=O)c2ccccc21,93.1 µM (inactive),> 100 µM (inactive),> 100 µM (inactive),> 100 µM (inactive),> 100 µM,33.7 µM (inactive),95.9 µM (inactive),> 100 µM (inactive),> 100 µM (inactive),> 100 µM (inactive),> 100 µM (inactive),> 100 µM (inactive),> 100 µM (inactive),> 100 µM (inactive),> 100 µM (inactive),> 100 µM (inactive),45.3 µM (inactive),46.7 µM (inactive),> 100 µM (inactive),> 100 µM (inactive)
OC1(c2ccc(Cl)cc2)c2c(c3ccccc3c3ccccc23)C2=NCCN21 (stereo not given),4.02 µM (inactive),9.14 µM (inactive),28.2 µM (inactive),10.9 µM (inactive),24.3 µM,11.3 µM (inactive),16.6 µM (inactive),3.96 µM (inactive),37.3 µM (inactive),16.7 µM (inactive),11.4 µM (inactive),23.8 µM (inactive),17 µM (inactive),11.5 µM (inactive),18.7 µM (inactive),16.4 µM (inactive),13.6 µM (inactive),12.8 µM (inactive),20.4 µM (inactive),15.9 µM (inactive)
Cc1c(/C=N/N(C)C)oc2c1cc(O)c1ncccc12,6.28 µM (inactive),5.01 µM (inactive),35.8 µM (inactive),2.99 µM (inactive),2.31 µM,7.35 µM (inactive),10.7 µM (inactive),14.3 µM (inactive),3.86 µM (inactive),18.2 µM (inactive),3.25 µM (inactive),2.66 µM (inactive),7.24 µM (inactive),9.91 µM (inactive),12.6 µM (inactive),6.87 µM (inactive),14.1 µM (inactive),13.1 µM (inactive),5.36 µM (inactive),13.8 µM (inactive)
